Experimental data taken from patent publication US9302999B2, “Substituted triazoles as herbicides” (E. I. DU PONT DE NEMOURS AND COMPANY, priority 2012, dated 2016).

Assays:
Type in all cases: in vivo
[1] = system: bluegrass (annual bluegrass, Poa annua); assay: Test D pre-/postemergence: bluegrass
Method in brief: (§1)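 Visual 0–100 rating versus untreated controls (0 no effect, 100 complete control), taken 14 to 21 days after treatment in a controlled growth environment. Preemergence: silt loam soil. Postemergence: peat moss/vermiculite medium, plants 2 to 18 cm, 1- to 4-leaf stage. Solvent mixture with surfactant.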

[2] = system: oilseed rape (Brassica napus); assay: Test D pre-/postemergence: oilseed rape
Method in brief: as §1

[3] = system: barnyardgrass (Echinochloa crus-galli); assay: Test C flooded paddy test: barnyardgrass; conditions: scale 0 to 100 (0 no effect, 100 complete control); for pest or weed control at 62 g/ha / pest or weed control at 250 g/ha: Echinochloa crus-galli, read-out: Plant response rating, Barnyardgrass
Method in brief: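 Plants at 2-leaf stage in pots flooded 3 cm above soil; compounds applied directly into the paddy water, depth maintained. Visual rating against controls after 13–15 days in greenhouse, scale 0 (no effect) to 100 (complete control).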

[4] = system: radish, wild (wild radish, Raphanus raphanistrum); assay: Test D pre-/postemergence: radish, wild
Text: Seeds of plant species selected from bluegrass (annual bluegrass, Poa annua), blackgrass (Alopecurus myosuroides), canarygrass (Phalaris minor), chickweed (common chickweed, Stellaria media), galium (catchweed bedstraw, Galium aparine), bromegrass, downy (downy bromegrass, Bromus tectorum), field poppy (Papaver rhoeas), field violet (Viola arvensis), foxtail, green (green foxtail, Setaria viridis), deadnettle (henbit deadnettle, Lamium amplexicaule), ryegrass, Italian (Italian ryegrass, Lolium multiflorum), kochia (Kochia scoparia), lambsquarters (Chenopodium album), oilseed rape (Brassica napus), pigweed (Amaranthus retroflexus), Russian thistle (Salsola iberica), chamomile (scentless chamomile, Matricaria inodora), speedwell (bird's-eye speedwell, Veronica persica), barley, spring (spring barley, Hordeum vulgare), wheat, spring (spring wheat, Triticum aestivum), buckwheat, wild (wild buckwheat, Polygonum convolvulus), mustard, wild (wild mustard, Sinapis arvensis), oat, wild (wild oat, Avena fatua), radish, wild (wild radish, Raphanus raphanistrum), windgrass (Apera spica-venti), barley, winter (winter barley, Hordeum vulgare), and wheat, winter (winter wheat, Triticum aestivum) were planted into a silt loam soil and treated preemergence with test chemicals formulated in a non-phytotoxic solvent mixture which included a surfactant. At the same time, these same crop and weed species were planted in pots containing the planting medium comprising spaghnum peat moss, vermiculite, wetting agent and starter nutrients and treated with postemergence applications of the test chemicals formulated in the same manner. Plants ranged in height from 2 to 18 cm (1- to 4-leaf stage).
Treated plants and controls were maintained in a controlled growth environment for 14 to 21 days after which time all species were compared to controls and visually evaluated. Plant response ratings, summarized in Table D, are based on a scale of 0 to 100 where 0 is no effect and 100 is complete control. A dash (-) response means no test result.

[5] = Postemergence, 31 g ai/ha, scale 0 to 100 (0 no effect, 100 complete control)
[6] = Postemergence, 62 g ai/ha, scale 0 to 100 (0 no effect, 100 complete control)
[7] = Postemergence, 125 g ai/ha, scale 0 to 100, 0 no effect, 100 complete control
[8] = Postemergence, 250 g ai/ha, scale 0 to 100 (0 no effect, 100 complete control)
[9] = Postemergence, 16 g ai/ha, scale 0 to 100
[10] = Flood (flooded paddy test), 62 g ai/ha, visual rating after 13 to 15 days
[11] = Flood (flooded paddy test), 125 g ai/ha, visual rating after 13 to 15 days
[12] = Flood (flooded paddy test), 250 g ai/ha, visual rating after 13 to 15 days
[13] = Preemergence, 31 g ai/ha, scale 0 to 100, 0 no effect, 100 complete control
[14] = Preemergence, 62 g ai/ha, scale 0 to 100
[15] = Preemergence, 125 g ai/ha, scale 0 to 100
[16] = Preemergence, 250 g ai/ha, scale 0 to 100
[17] = Preemergence, 16 g ai/ha, scale 0 to 100, 0 no effect, 100 complete control

Row | Compound | Plant response rating: Bluegrass [1, 5] | Plant response rating: Bluegrass [1, 6] | Plant response rating: Bluegrass [1, 7] | Plant response rating: Bluegrass [1, 8] | Plant response rating, Bluegrass [1, 9] | Plant response rating: Oilseed Rape [2, 5] | Plant response rating: Oilseed Rape [2, 6] | Plant response rating: Oilseed Rape [2, 7] | Plant response rating: Oilseed Rape [2, 8] | Plant response rating, Oilseed Rape [2, 9] | Plant response rating: Radish, Wild [4, 5] | Plant response rating: Radish, Wild [4, 6] | Plant response rating: Radish, Wild [4, 7] | Plant response rating: Radish, Wild [4, 8] | Plant response rating, Radish, Wild [4, 9] | Plant response rating, Bluegrass [1, 13] | Plant response rating, Bluegrass [1, 14] | Plant response rating, Bluegrass [1, 15] | Plant response rating, Bluegrass [1, 16] | Plant response rating, Oilseed Rape [2, 13] | also measured
1 | Cc1nn(-c2ccc(C(F)(F)F)cn2)nc1Oc1ccnc(C(F)(F)F)c1 [Compound 23] | 20 | 25 | 30 | 40 | 20 | 50 | 75 | 85 | 95 | 50 | 20 | 40 | 75 | 100 | 20 | – | – | – | – | – | Plant response rating, Barnyardgrass [3, 10]: 0; Plant response rating, Barnyardgrass [3, 11]: 20; Plant response rating, Barnyardgrass [3, 12]: 25; Plant response rating, Barnyardgrass ([3]; Flood, 31 g ai/ha): 0
2 | FC(F)(F)COc1nn(-c2ccc(C(F)(F)F)cc2)nc1Cc1ccnc(C(F)(F)F)c1 [Compound 14, 4-[[5-(2,2,2-trifluoroethoxy)-2-[4-(trifluoromethyl)phenyl]-2H-1,2,3-triazol-4-yl]methyl]-2-(trifluoromethyl)pyridine] | 20 | 35 | 70 | 95 | – | 30 | 70 | 90 | 100 | – | 70 | 85 | 100 | 100 | – | 0 | 30 | 85 | 100 | 0 | Plant response rating, Oilseed Rape [2, 14]: 0; Plant response rating, Oilseed Rape [2, 15]: 30; Plant response rating, Oilseed Rape [2, 16]: 40; pest or weed control at 62 g/ha [3, 10]: 50%; pest or weed control at 250 g/ha [3, 12]: 70%; Plant response rating, Radish, Wild [4, 14]: 40; Plant response rating, Radish, Wild [4, 15]: 100; Plant response rating, Radish, Wild [4, 16]: 100
3 | COc1nn(-c2ccc(C(F)(F)F)cc2)nc1Cc1ccnc(C(F)(F)F)c1 [Compound 15, 4-[[5-methoxy-2-[4-(trifluoromethyl)phenyl]-2H-1,2,3-triazol-4-yl]methyl]-2-(trifluoromethyl)pyridine] | 10 | 25 | 50 | 95 | 0 | 100 | 70 | 100 | 100 | 70 | 100 | 100 | 100 | 100 | 100 | 0 | 5 | 80 | 100 | 0 | Plant response rating, Oilseed Rape [2, 14]: 10; Plant response rating, Oilseed Rape [2, 15]: 20; Plant response rating, Oilseed Rape [2, 16]: 75; pest or weed control at 62 g/ha [3, 10]: 65%; pest or weed control at 250 g/ha [3, 12]: 75%; Plant response rating, Radish, Wild [4, 13]: 0; Plant response rating, Radish, Wild [4, 14]: 0; Plant response rating, Radish, Wild [4, 15]: 100; Plant response rating, Radish, Wild [4, 16]: 100
4 | Cc1nn(-c2ccc(C(F)(F)F)cc2)nc1Oc1ccnc(C(F)(F)F)c1 [Compound 120] | 10 | 40 | 70 | 95 | 10 | 50 | 80 | 90 | 98 | 20 | 100 | 90 | 100 | 100 | 100 | 100 | 100 | 100 | 100 | 10 | Plant response rating, Bluegrass [1, 17]: 0; Plant response rating, Oilseed Rape [2, 17]: 0; Plant response rating, Oilseed Rape [2, 14]: 10; Plant response rating, Oilseed Rape [2, 15]: 30; Plant response rating, Oilseed Rape [2, 16]: 70; Plant response rating, Barnyardgrass [3, 11]: 80; Plant response rating, Barnyardgrass [3, 12]: 80; Plant response rating, Barnyardgrass ([3]; Flood, 62 g ai/ha): 65; Plant response rating, Radish, Wild [4, 17]: 0; Plant response rating, Radish, Wild [4, 14]: 20; Plant response rating, Radish, Wild [4, 15]: 90; Plant response rating, Radish, Wild [4, 16]: 100
